Assay results published in PubChem BioAssay AID2060892 (Molecular Pharmacology Branch, DTP, NCI, 2025).

Test system: HOP-62 complex spheroids with HUVEC/MSC, viability
Experiment: Anticancer human tumor HOP-62 cell line growth inhibition [RAS];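 also: spheroids exposed to agents for seven days before readout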;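 as to viability, T/C: 100% = DMSO vehicle control viability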
Settings: for IC50: curve of first compound; for viability, T/C: stronger effect = lower value
Method in brief: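 Agents were tested in combination matrices in half-log decrements from a top concentration at or near clinical Cmax (10 microM if undetermined). Targets were multi-cell spheroids of tumour lines plus HUVEC and MSC stromal cells.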

[1] = second compound 0.00316 µM, first compound 0.0316 µM
[2] = second compound 0.00316 µM, first compound 0.1 µM
[3] = second compound 0.00316 µM, first compound 0.316 µM
[4] = second compound 0.00316 µM, first compound 1 µM
[5] = second compound 0.01 µM, first compound 0.0316 µM
[6] = second compound 0.01 µM, first compound 0.1 µM
[7] = second compound 0.01 µM, first compound 0.316 µM
[8] = second compound 0.01 µM, first compound 1 µM
[9] = second compound 0.0316 µM, first compound 0.0316 µM
[10] = second compound 0.0316 µM, first compound 0.1 µM
[11] = second compound 0.0316 µM, first compound 0.316 µM
[12] = second compound 0.0316 µM, first compound 1 µM
[13] = second compound 0.1 µM, first compound 0.0316 µM
[14] = second compound 0.1 µM, first compound 0.1 µM
[15] = second compound 0.1 µM, first compound 0.316 µM
[16] = second compound 0.1 µM, first compound 1 µM
[17] = second compound 0.316 µM, first compound 0.0316 µM
[18] = second compound 0.316 µM, first compound 0.1 µM
[19] = second compound 0.316 µM, first compound 0.316 µM
[20] = second compound 0.316 µM, first compound 1 µM
[21] = second compound 1 µM, first compound 0.0316 µM
[22] = second compound 1 µM, first compound 0.1 µM
[23] = second compound 1 µM, first compound 0.316 µM
[24] = second compound 1 µM, first compound 1 µM

NC1c2ccccc2OC12CCN(c1cnc3c(N4CCCc5ncccc54)n[nH]c3n1)CC2 (centres undefined) + C=CC(=O)N1CCN(c2nc(OCC3CCCN3C)nc3c(F)c(-c4nc(N)cc(C)c4C(F)(F)F)c(Cl)cc23)C(C)C1
IC50 (second compound 0.00316 µM): < 31.6 nM
IC50 (second compound 0.01 µM): < 31.6 nM
IC50 (second compound 0.0316 µM): < 31.6 nM
IC50 (second compound 0.1 µM): < 31.6 nM
IC50 (second compound 0.316 µM): < 31.6 nM
IC50 (second compound 1 µM): < 31.6 nM
viability, T/C [1]: 45.5%
viability, T/C [2]: 30.2%
viability, T/C [3]: 15%
viability, T/C [4]: 13.9%
viability, T/C (second compound 0.00316 µM, first compound 3.16 µM): 9.04%
viability, T/C (second compound 0.00316 µM, first compound 10 µM): 8.74%
viability, T/C [5]: 34.9%
viability, T/C [6]: 22.6%
viability, T/C [7]: 11.9%
viability, T/C [8]: 11.9%
viability, T/C (second compound 0.01 µM, first compound 3.16 µM): 9.09%
viability, T/C (second compound 0.01 µM, first compound 10 µM): 10.8%
viability, T/C [9]: 30.6%
viability, T/C [10]: 18.5%
viability, T/C [11]: 12.2%
viability, T/C [12]: 10.9%
viability, T/C (second compound 0.0316 µM, first compound 3.16 µM): 10.3%
viability, T/C (second compound 0.0316 µM, first compound 10 µM): 7.74%
viability, T/C [13]: 30.8%
viability, T/C [14]: 15.1%
viability, T/C [15]: 11%
viability, T/C [16]: 10.3%
viability, T/C (second compound 0.1 µM, first compound 3.16 µM): 9.12%
viability, T/C (second compound 0.1 µM, first compound 10 µM): 8.09%
viability, T/C [17]: 28.3%
viability, T/C [18]: 14.4%
viability, T/C [19]: 11.2%
viability, T/C [20]: 10.5%
viability, T/C (second compound 0.316 µM, first compound 3.16 µM): 6.82%
viability, T/C (second compound 0.316 µM, first compound 10 µM): 8.51%
viability, T/C [21]: 29.5%
viability, T/C [22]: 15.3%
viability, T/C [23]: 10.8%
viability, T/C [24]: 9.35%
viability, T/C (second compound 1 µM, first compound 3.16 µM): 10.7%
viability, T/C (second compound 1 µM, first compound 10 µM): 5.7%

Nc1ccn(C2OC(CO)C(O)C2(F)F)c(=O)n1 (centres undefined) + C=CC(=O)N1CCN(c2nc(OCC3CCCN3C)nc3c(F)c(-c4nc(N)cc(C)c4C(F)(F)F)c(Cl)cc23)C(C)C1
IC50 (second compound 0.00316 µM): 4.79 nM
IC50 (second compound 0.01 µM): 4 nM
IC50 (second compound 0.0316 µM): 3.8 nM
IC50 (second compound 0.1 µM): 3.57 nM
IC50 (second compound 0.316 µM): 3.88 nM
IC50 (second compound 1 µM): 3.32 nM
viability, T/C (second compound 0.00316 µM, first compound 0.00316 µM): 71.5%
viability, T/C (second compound 0.00316 µM, first compound 0.01 µM): 11.7%
viability, T/C [1]: 4.51%
viability, T/C [2]: 3.58%
viability, T/C [3]: 3.88%
viability, T/C [4]: 4.22%
viability, T/C (second compound 0.01 µM, first compound 0.00316 µM): 61%
viability, T/C (second compound 0.01 µM, first compound 0.01 µM): 7.13%
viability, T/C [5]: 4.46%
viability, T/C [6]: 3.64%
viability, T/C [7]: 3.98%
viability, T/C [8]: 4.49%
viability, T/C (second compound 0.0316 µM, first compound 0.00316 µM): 57.3%
viability, T/C (second compound 0.0316 µM, first compound 0.01 µM): 11.7%
viability, T/C [9]: 4.71%
viability, T/C [10]: 4.6%
viability, T/C [11]: 4.09%
viability, T/C [12]: 3.59%
viability, T/C (second compound 0.1 µM, first compound 0.00316 µM): 54.7%
viability, T/C (second compound 0.1 µM, first compound 0.01 µM): 10.5%
viability, T/C [13]: 3.96%
viability, T/C [14]: 3.63%
viability, T/C [15]: 4.57%
viability, T/C [16]: 3.1%
viability, T/C (second compound 0.316 µM, first compound 0.00316 µM): 58.8%
viability, T/C (second compound 0.316 µM, first compound 0.01 µM): 9.95%
viability, T/C [17]: 5.61%
viability, T/C [18]: 4.79%
viability, T/C [19]: 5.44%
viability, T/C [20]: 3.53%
viability, T/C (second compound 1 µM, first compound 0.00316 µM): 51.9%
viability, T/C (second compound 1 µM, first compound 0.01 µM): 6.83%
viability, T/C [21]: 4.34%
viability, T/C [22]: 3.74%
viability, T/C [23]: 4.68%
viability, T/C [24]: 3.28%
